{
  "source": "patent US20240043372A1",
  "about": "“SUBSTITUTED AROMATIC COMPOUNDS AND PHARMACEUTICAL COMPOSITIONS THEREOF” (PHARMACEUTIQUE INGENEW INC., priority 2020, published 2024)",
  "key": {"[1]": {"system": "PC-3 cells (human prostate cancer cells)", "assay": "PC-3 cell proliferation (MTT)", "format": "cell-based", "settings": "24 hours", "description": "Antiproliferative activity of representative compounds on cancer cells was also undertaken by using PC-3 cells (human prostate cancer cells). PC-3 cells were cultured for 24 hours in 96-well plates with or without Compounds or Positive Control (PCtrl: sodium 2-(2-hydroxy-3,5-dipentylphenyl)acetate) or Setogepram CAS No.: 1002101-19-0 from MedChemExpress LLC, USA) at various concentrations. The last four hours of incubation, 50 μl of a freshly made solution of MTT at 2 mg/ml in PBS were added. Cells were harvested, 150 μl of DMSO were added to solubilize the formazan crystal formed and the plates were read the plate at 570 nm."}, "human glioblastoma U87": {"system": "human glioblastoma U87", "assay": "Avatar CAM assay, U87 tumour", "format": "in vivo", "settings": "for Anticancer Activity U87: Avatar CAM, tumour volume at day 16, symbols X to XXXX not defined", "description": "(§1) In this example, representative compounds of the present disclosure were tested for their respective effect on tumors using a model of Avatar Chick Chorioallantoic Membrane (CAM) assay. CAM assays have been widely used to study angiogenesis and tumor invasion of colorectal, prostate and brain cancers, as well as for studying patient-derived xenograft for potential personalized medicine.\n(§2) The present inventor has tested representative compounds from the present disclosure or a Positive Control (PCtrl: sodium 2-(2-hydroxy-3,5-dipentylphenyl)acetate) as per the following. Fertilized eggs from white leghorn chicken were used and incubated in an Ova-Easy egg incubator at 37° C. with 60% humidity. At day 3, eggs were cracked. At day 9, U87 (human glioblastoma) cell suspensions (1×10^6 cells), or Caki cells or patient-derived xenograph (glioblastoma fragment) were mixed (1:1) with growth factor reduced Matrigel™ in a total volume of 20 μl for cell lines and POX-patient fragments were placed directly on top of the CAM and were returned to the incubator. Intravenous injection at day 11 or topical administration (Day 11 to Day 16) with or without the compounds. At day 16, chick embryos were killed by decapitation. Tumours were removed and tumour volumes were calculated using the formula: (Dd^2/3)."}, "[2]": {"system": "carboplatin-resistant PDX glioblastoma (GBM20-75)", "assay": "Avatar CAM assay, patient-derived xenograft glioblastoma", "format": "in vivo, human", "settings": "FIG. 3, PDX glioblastoma resistant to carboplatin", "description": "as §1, §2"}, "[3]": {"system": "human renal carcinoma Caki cells", "assay": "Avatar CAM assay, Caki tumour", "format": "in vivo", "settings": "for Anticancer Activity Caki: Avatar CAM, tumour volume at day 16, symbols X to XXXX not defined; for anticancer activity relative to Sorafenib: FIG. 2, Caki cells in CAM Avatar model", "description": "as §1, §2"}, "[4]": {"system": "human fibrosarcoma HT1080 cell", "assay": "Avatar CAM assay, HT1080 tumour", "format": "in vivo", "settings": "tumour volume at day 16, symbols X to XXXX not defined"}, "[5]": {"system": "PDX-fragments from IPF lungs", "assay": "Avatar CAM model, PDX-IPF lung fragments (volume, Masson's trichrome)", "format": "in vivo, human", "settings": "for collagen deposition in the PDX-IPF fragment: FIG. 5, Masson's trichrome staining", "description": "Avatar CAM model was also used to determine the antifibrotic activity of the representative compounds. Briefly, fertilized eggs from white leghorn chicken were used and incubated in an Ova-Easy egg incubator at 37° C. with 60% humidity. At day 3, eggs were cracked. At day 9, PDX-fragments from IPF lungs were grafted on top of the CAM and were returned to the incubator. Treatment by intravenous injection of compounds was performed at day 11 and at day 16, chick embryos were killed by decapitation. IPF-PDX fragments were removed and volumes were calculated using the formula: (Dd^2/3). Fibrosis was determined by a Masson's trichrome staining."}},
  "note": "“Also recorded” adds a separate entry of the source.",
  "data": [
    {"smiles": "CCCCCc1cc(CCCCC)c(O)c(CC(=O)O)c1", "note": "[PCtrl, sodium 2-(2-hydroxy-3,5-dipentylphenyl)acetate, reference compound]", "values": [
      {"measurement": "inhibition at 12.5 µM", "setting": "[1]", "value": 0, "unit": "%"},
      {"measurement": "inhibition at 25 µM", "setting": "[1]", "value": 0, "unit": "%"},
      {"measurement": "inhibition at 50 µM", "setting": "[1]", "value": 0, "unit": "%"},
      {"measurement": "inhibition at 100 µM", "setting": "[1]", "value": 0, "unit": "%"},
      {"measurement": "inhibition at 200 µM", "setting": "[1]", "value": 20, "unit": "%"}
    ]},
    {"smiles": "CCCCCc1cc(CCO)c(O)c(CCCCC)c1", "note": "[Representative Compound 2]", "values": [
      {"measurement": "Anticancer Activity U87", "setting": "human glioblastoma U87", "value": "XXX"},
      {"measurement": "growth (volume) response of PDX glioblastoma to treatment", "setting": "[2]", "value": "does not respond"},
      {"measurement": "Anticancer Activity Caki", "setting": "[3]", "value": "XXXX"},
      {"measurement": "anticancer activity relative to Sorafenib", "setting": "[3]", "value": "reach the anticancer activity of Sorafenib"},
      {"measurement": "inhibition at 12.5 µM", "setting": "[1]", "value": 0, "unit": "%"},
      {"measurement": "inhibition at 25 µM", "setting": "[1]", "value": 63.6, "unit": "%"},
      {"measurement": "inhibition at 50 µM", "setting": "[1]", "value": 70, "unit": "%"},
      {"measurement": "inhibition at 100 µM", "setting": "[1]", "value": 72.2, "unit": "%"},
      {"measurement": "inhibition at 200 µM", "setting": "[1]", "value": 66.3, "unit": "%"}
    ]},
    {"smiles": "CCCCCc1cc(CCO)c(N)c(CCCCC)c1", "note": "[Representative Compound 3]", "values": [
      {"measurement": "inhibition at 12.5 µM", "setting": "[1]", "value": 0, "unit": "%"},
      {"measurement": "inhibition at 25 µM", "setting": "[1]", "value": 39.1, "unit": "%"},
      {"measurement": "inhibition at 50 µM", "setting": "[1]", "value": 67.4, "unit": "%"},
      {"measurement": "inhibition at 100 µM", "setting": "[1]", "value": 62.1, "unit": "%"},
      {"measurement": "inhibition at 200 µM", "setting": "[1]", "value": 65.8, "unit": "%"}
    ]},
    {"smiles": "CCCCCc1cccc(CCO)c1", "note": "[Representative Compound 4]", "values": [
      {"measurement": "Anticancer Activity HT1080", "setting": "[4]", "value": "XXX"},
      {"measurement": "Antifibrotic Activity PDX (IPF lungs)", "setting": "[5]; Avatar CAM, reduction of volume growth of PDX-IPF fragments, symbols not defined", "value": "XXXX"},
      {"measurement": "volume of the PDX-IPF fragments", "setting": "[5]; FIG. 4, intravenous injection at day 11, volume at day 16", "value": "reduces significantly the volume"},
      {"measurement": "collagen deposition in the PDX-IPF fragment", "setting": "[5]", "value": "reduce collagen deposition"},
      {"measurement": "inhibition at 62.5 µM", "setting": "[1]", "value": 26.1, "unit": "%"},
      {"measurement": "inhibition at 125 µM", "setting": "[1]", "value": 30.3, "unit": "%"},
      {"measurement": "inhibition at 250 µM", "setting": "[1]", "value": 74.2, "unit": "%"},
      {"measurement": "inhibition at 500 µM", "setting": "[1]", "value": 72.9, "unit": "%"},
      {"measurement": "inhibition at 1000 µM", "setting": "[1]", "value": 70.4, "unit": "%"}
    ]},
    {"smiles": "OCCc1cc(Cc2ccccc2)cc(Cc2ccccc2)c1", "note": "[Representative Compound 5]", "values": [
      {"measurement": "Anticancer Activity U87", "setting": "human glioblastoma U87", "value": "XXXX"},
      {"measurement": "anticancer activity relative to carboplatin", "setting": "human glioblastoma U87; FIG. 1, U87 in CAM Avatar model", "value": "reached the anticancer activity of carboplatin"},
      {"measurement": "Anticancer Activity HT1080", "setting": "[4]", "value": "XXX"},
      {"measurement": "Anticancer Activity Caki", "setting": "[3]", "value": "XXXX"},
      {"measurement": "anticancer activity relative to Sorafenib", "setting": "[3]", "value": "reach the anticancer activity of Sorafenib"},
      {"measurement": "inhibition at 12.5 µM", "setting": "[1]", "value": 1.7, "unit": "%"},
      {"measurement": "inhibition at 25 µM", "setting": "[1]", "value": 42.8, "unit": "%"},
      {"measurement": "inhibition at 50 µM", "setting": "[1]", "value": 70.6, "unit": "%"},
      {"measurement": "inhibition at 100 µM", "setting": "[1]", "value": 72.2, "unit": "%"},
      {"measurement": "inhibition at 200 µM", "setting": "[1]", "value": 53, "unit": "%"}
    ]},
    {"smiles": "CCCCCc1cc(CCCCC)c(O)c(CC(N)=O)c1", "note": "[Representative Compound 1]", "values": [
      {"measurement": "inhibition at 12.5 µM", "setting": "[1]", "value": 0, "unit": "%"},
      {"measurement": "inhibition at 25 µM", "setting": "[1]", "value": 0, "unit": "%"},
      {"measurement": "inhibition at 50 µM", "setting": "[1]", "value": 0, "unit": "%"},
      {"measurement": "inhibition at 100 µM", "setting": "[1]", "value": 0, "unit": "%"},
      {"measurement": "inhibition at 200 µM", "setting": "[1]", "value": 0, "unit": "%"}
    ]},
    {"smiles": "N.N.O=C([O-])C1(C(=O)[O-])CCC1.[Pt+2]", "note": "[carboplatin, reference compound]", "values": [
      {"measurement": "growth (volume) response of PDX glioblastoma to treatment", "setting": "[2]", "value": "effectively resistant"}
    ]},
    {"smiles": "CCCCCc1cccc(CC(=O)O)c1", "note": "[Setogepram, reference compound]", "values": [
      {"measurement": "collagen deposition in the PDX-IPF fragment", "setting": "[5]", "value": "reduce collagen deposition; also recorded: reduced the collagen deposition"},
      {"measurement": "inhibition at 62.5 µM", "setting": "[1]", "value": 16.8, "unit": "%"},
      {"measurement": "inhibition at 125 µM", "setting": "[1]", "value": 5.7, "unit": "%"},
      {"measurement": "inhibition at 250 µM", "setting": "[1]", "value": 10.4, "unit": "%"},
      {"measurement": "inhibition at 500 µM", "setting": "[1]", "value": 0, "unit": "%"},
      {"measurement": "inhibition at 1000 µM", "setting": "[1]", "value": 0, "unit": "%"}
    ]}
  ]
}
